Source: patent US9067898B1, “Isothiazole derivatives as GPR120 agonists for the treatment of type II diabetes” (Janssen Pharmaceutica NV, priority 2014, dated 2015)

target: T1, Human GPR120 short form (Homo sapiens, UniProt Q5NUL3); assay: Human GPR120 calcium flux assay (FLIPR), Procedure Calcium A; assay type: cell-based; details: HEK-293 cells expressing human GPR120 short form, 2500 cells/well; read-out: GPR120 Ca2+ Assay A EC50
T1 construct: expressed in transfected cells
T1 sequence (Q5NUL3 1-361): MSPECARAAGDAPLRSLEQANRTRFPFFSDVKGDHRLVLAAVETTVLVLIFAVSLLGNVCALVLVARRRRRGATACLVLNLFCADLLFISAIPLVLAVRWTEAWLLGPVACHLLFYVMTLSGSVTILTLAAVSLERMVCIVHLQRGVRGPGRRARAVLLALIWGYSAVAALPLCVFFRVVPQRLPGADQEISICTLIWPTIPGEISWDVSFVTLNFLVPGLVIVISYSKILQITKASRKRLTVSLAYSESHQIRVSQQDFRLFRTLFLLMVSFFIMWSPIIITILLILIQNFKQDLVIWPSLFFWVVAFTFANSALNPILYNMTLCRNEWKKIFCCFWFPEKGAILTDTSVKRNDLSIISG
Method in brief: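 HEK293 cells stably expressing the short isoform (NM_001195755.1), 2500/well, starved 1 h, then loaded with Fluo-4 NW plus probenecid (30 min 37 °C, 15 min RT). Compound solutions 0.012–100 μM, 0.2% DMSO final; FLIPR read 300 s after addition. EC50 from Fmax−Fmin fitted to variable-slope sigmoid (Hill <2).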

Row | EC50 [nM] | Compound
1 | 104 | O=C(O)CCc1cc(F)c(OCc2c(-c3ccc(Cl)cc3)nsc2C(F)(F)F)c(F)c1F [Cpd 116, 3-(4-((3-(4-chlorophenyl)-5-(trifluoromethyl)isothiazol-4-yl)methoxy)-2,3,5-trifluorophenyl)propanoic acid]
2 | 50 | 3-(4-[[3-(4-ethylphenyl)-5-(trifluoromethyl)-1,2-thiazol-4-yl]methoxy]-1-benzothiophen-7-yl)propanoic acid [Cpd 92]
3 | 89 | CC(Cc1cc(F)c(OCc2c(-c3ccc(Cl)cc3)nsc2C(F)(F)F)c(F)c1)C(=O)O (stereo not shown) [Cpd 108, 3-(4-[[3-(4-chlorophenyl)-5-(trifluoromethyl)-1,2-thiazol-4-yl]methoxy]-3,5-difluorophenyl)-2-methylpropanoic acid]
4 | 155 | Cc1c(CCC(=O)O)ccc(OCc2c(-c3ccc(Cl)cc3)nsc2C(F)(F)F)c1C [Cpd 142, 3-(4-((3-(4-chlorophenyl)-5-(trifluoromethyl)isothiazol-4-yl)methoxy)-2,3-dimethylphenyl)propanoic acid]
5 | 30 | 3-(4-[[3-(4-ethylphenyl)-5-(trifluoromethyl)-1,2-thiazol-4-yl]methoxy]-3,5-difluorophenyl)propanoic acid [Cpd 70]
6 | 50 | 3-(4-[[3-(4-chlorophenyl)-5-(trifluoromethyl)-1,2-thiazol-4-yl]methoxy]-3-methylphenyl)propanoic acid [Cpd 235]
7 | 202 | CCc1cc(CCC(=O)O)ccc1OCc1c(-c2ccc(Cl)cc2)nsc1C(F)(F)F [Cpd 162, 3-(4-[[3-(4-chlorophenyl)-5-(trifluoromethyl)-1,2-thiazol-4-yl]methoxy]-3-ethylphenyl)propanoic acid]
8 | 603 | OCC#Cc1cc(F)c(OCc2c(-c3ccc(Cl)cc3)nsc2C(F)(F)F)c(F)c1 [Cpd 213, 3-(4-[[3-(4-chlorophenyl)-5-(trifluoromethyl)-1,2-thiazol-4-yl]methoxy]-3,5-difluorophenyl)prop-2-yn-1-ol]
9 | 76 | OCCCc1cc(F)c(OCc2c(-c3ccc(Cl)cc3)nsc2C(F)(F)F)c(F)c1 [Cpd 100, 3-(4-[[3-(4-chlorophenyl)-5-(trifluoromethyl)-1,2-thiazol-4-yl]methoxy]-3,5-difluorophenyl)propan-1-ol]
10 | 173 | O=C(O)CCc1c(F)c(F)c(OCc2c(-c3ccc(Cl)cc3)nsc2C(F)(F)F)c(F)c1F [Cpd 152, 3-(4-((3-(4-chlorophenyl)-5-(trifluoromethyl)isothiazol-4-yl)methoxy)-2,3,5,6-tetrafluorophenyl)propanoic acid]
11 | 175 | O=C(O)CCc1cc(F)c(OCc2c(-c3ncc(Cl)cc3F)nsc2C(F)(F)F)c(F)c1 [Cpd 153, 3-(4-((3-(5-chloro-3-fluoropyridin-2-yl)-5-(trifluoromethyl)isothiazol-4-yl)methoxy)-3,5-difluorophenyl)propanoic acid]
12 | 344 | Cc1ccccc1-c1snc(Cl)c1COc1c(F)cc(CCC(=O)O)cc1F [Cpd 193, 3-(4-[[3-chloro-5-(2-methylphenyl)-1,2-thiazol-4-yl]methoxy]-3,5-difluorophenyl)propanoic acid]
13 | 137 | O=C(O)CCc1cc(F)c(OCc2c(-c3ccc(Cl)c(F)c3)nsc2C(F)(F)F)c(F)c1F [Cpd 138, 3-(4-((3-(4-chloro-3-fluorophenyl)-5-(trifluoromethyl)isothiazol-4-yl)methoxy)-2,3,5-trifluorophenyl)propanoic acid]
14 | 133 | Cc1c(CCC(=O)O)ccc(OCc2c(-c3ccccc3)nsc2C(F)(F)F)c1C [Cpd 134, 3-(2,3-dimethyl-4-[[3-phenyl-5-(trifluoromethyl)-1,2-thiazol-4-yl]methoxy]phenyl)propanoic acid]
15 | 270 | Cc1c(CCC(=O)O)ccc(OCc2c(-c3ncc(Cl)cc3F)nsc2C(F)(F)F)c1C [Cpd 180, 3-(4-((3-(5-chloro-3-fluoropyridin-2-yl)-5-(trifluoromethyl)isothiazol-4-yl)methoxy)-2,3-dimethylphenyl)propanoic acid]
16 | 78 | OCCCc1ccc(OCc2c(Cl)nsc2-c2ccc(Cl)cc2)c(F)c1F [Cpd 102, 3-(4-((3-chloro-5-(4-chlorophenyl)isothiazol-4-yl)methoxy)-2,3-difluorophenyl)propan-1-ol]

Second part, the compound before the results:

Row | Compound | EC50 [nM]
17 | O=C(O)CCc1cc(F)c(OCc2c(-c3ccc(Cl)cc3F)nsc2C(F)(F)F)c(F)c1 [Cpd 74, 3-(4-((3-(4-chloro-2-fluorophenyl)-5-(trifluoromethyl)isothiazol-4-yl)methoxy)-3,5-difluorophenyl)propanoic acid] | 42
18 | CCc1ccc(-c2nsc(C(F)(F)F)c2COc2ccc(CCC(=O)O)c(F)c2F)cc1 [Cpd 73, 3-(4-((3-(4-ethylphenyl)-5-(trifluoromethyl)isothiazol-4-yl)methoxy)-2,3-difluorophenyl)propanoic acid] | 41
19 | OCCCc1cc(F)c(OCc2c(-c3ccc4c(c3)OCO4)nsc2C(F)(F)F)c(F)c1 [Cpd 93, 3-(4-[[3-(2H-1,3-benzodioxol-5-yl)-5-(trifluoromethyl)-1,2-thiazol-4-yl]methoxy]-3,5-difluorophenyl)propan-1-ol] | 71
20 | CCc1ccc(-c2cc(F)sc2COc2ccc(CCC(=O)O)c(C)c2C)cc1 [Cpd 1, 3-(4-[[3-(4-ethylphenyl)-5-fluorothiophen-2-yl]methoxy]-2,3-dimethylphenyl)propanoic acid] | 24
21 | Cc1ccc(-c2nsc(C(F)(F)F)c2COc2c(F)cc(CC(C)C(=O)O)cc2F)c(F)c1 (stereo not shown) [Cpd 76, 3-(3,5-difluoro-4-[[3-(2-fluoro-4-methylphenyl)-5-(trifluoromethyl)-1,2-thiazol-4-yl]methoxy]phenyl)-2-methylpropanoic acid] | 42
22 | O=C(O)CCc1cc(F)c(OCc2c(-c3ccc(Cl)c(F)c3)nsc2C(F)(F)F)c(F)c1 [Cpd 67, 3-(4-((3-(4-chloro-3-fluorophenyl)-5-(trifluoromethyl)isothiazol-4-yl)methoxy)-3,5-difluorophenyl)propanoic acid] | 25
23 | CCc1ccc(-c2snc(Cl)c2COc2ccc(CCC(=O)O)c(C)c2C)cc1 [Cpd 85, 3-(4-[[3-chloro-5-(4-ethylphenyl)-1,2-thiazol-4-yl]methoxy]-2,3-dimethylphenyl)propanoic acid] | 56
24 | Cc1c(CCC(=O)O)ccc(OCc2sc(F)cc2-c2ccc(Cl)cc2)c1C [Cpd 3, 3-(4-((3-(4-chlorophenyl)-5-fluorothiophen-2-yl)methoxy)-2,3-dimethylphenyl)propanoic acid] | 49
25 | O=C(O)CCc1cc(F)c(OCc2c(C3CCCC3)nsc2C(F)(F)F)c(F)c1 [Cpd 71, 3-(4-[[3-cyclopentyl-5-(trifluoromethyl)-1,2-thiazol-4-yl]methoxy]-3,5-difluorophenyl)propanoic acid] | 37
26 | OCCCc1cc(F)c(OCc2c(-c3ccc4c(c3)OCO4)csc2C(F)(F)F)c(F)c1 [Cpd 37, 3-(4-((4-(benzo[d][1,3]dioxol-5-yl)-2-(trifluoromethyl)thiophen-3-yl)methoxy)-3,5-difluorophenyl)propan-1-ol] | 94
27 | Cc1ccc(-c2nsc(C(F)(F)F)c2COc2c(F)cc(CCC(=O)O)cc2F)c(F)c1 [Cpd 65, 3-(3,5-difluoro-4-[[3-(2-fluoro-4-methylphenyl)-5-(trifluoromethyl)-1,2-thiazol-4-yl]methoxy]phenyl)propanoic acid] | 13
28 | O=C(O)CCc1cc(F)c(OCc2c(-c3ccc(Cl)cc3)nsc2C(F)(F)F)c(F)c1 [Cpd 79, 3-(4-[[3-(4-chlorophenyl)-5-(trifluoromethyl)-1,2-thiazol-4-yl]methoxy]-3,5-difluorophenyl)propanoic acid] | 51
